Experimental data reported in ChEMBL document CHEMBL1141727, “Isolation and cytotoxic evaluation of marine sponge-derived norterpene peroxides” (J Nat Prod, 1998).

Legend:
Format in all cases: functional
HL-60(TB) = assay: Growth inhibition of human HL-60(TB) cells
MOLT-4 = assay: Growth inhibition of human MOLT4 cells
A549 = assay: Growth inhibition of human A549 cells
EKVX = assay: Growth inhibition of human EKVX cells
HOP-62 = assay: Growth inhibition of human HOP62 cells
HOP-92 = assay: Growth inhibition of human HOP92 cells
NCI-H226 = assay: Growth inhibition of human NCI-H226 cells
NCI-H23 = assay: Growth inhibition of human NCI-H23 cells
NCI-H322M = assay: Growth inhibition of human NCI-H322M cells
NCI-H460 = assay: Growth inhibition of human NCI-H460 cells
COLO 205 = assay: Growth inhibition of human COLO205 cells
HCC 2998 = assay: Growth inhibition of human HCC2998 cells
HCT-116 = assay: Growth inhibition of human HCT116 cells
HCT-15 = assay: Growth inhibition of human HCT15 cells
HT-29 = assay: Growth inhibition of human HT-29 cells
KM12 = assay: Growth inhibition of human KM12 cells
SW-620 = assay: Growth inhibition of human SW620 cells
SF-268 = assay: Growth inhibition of human SF268 cells
SF-295 = assay: Growth inhibition of human SF295 cells
SF-539 = assay: Growth inhibition of human SF539 cells
SNB-19 = assay: Growth inhibition of human SNB19 cells
SNB-75 = assay: Growth inhibition of human SNB75 cells
U-251 = assay: Growth inhibition of human U251 cells
LOX IMVI = assay: Growth inhibition of human LOXIMVI cells
M14 = assay: Growth inhibition of human M14 cells
SK-MEL-2 = assay: Growth inhibition of human SK-MEL-2 cells
SK-MEL-28 = assay: Growth inhibition of human SK-MEL-28 cells
SK-MEL-5 = assay: Growth inhibition of human SK-MEL-5 cells
UACC-257 = assay: Growth inhibition of human UACC257 cells
IGROV-1 = assay: Growth inhibition of human IGROV1 cells
OVCAR-3 = assay: Growth inhibition of human OVCAR-3 cells
OVCAR-4 = assay: Growth inhibition of human OVCAR4 cells
OVCAR-5 = assay: Growth inhibition of human OVCAR5 cells
OVCAR-8 = assay: Growth inhibition of human OVCAR8 cells
SK-OV-3 = assay: Growth inhibition of human SKOV3 cells
786-0 = assay: Growth inhibition of human 786-0 cells
A498 = assay: Growth inhibition of human A498 cells
ACHN = assay: Growth inhibition of human ACHN cells
CAKI-1 = assay: Growth inhibition of human Caki1 cells
RXF 393 = assay: Growth inhibition of human […] cells
SN12C = assay: Growth inhibition of human SN12C cells
TK-10 = assay: Growth inhibition of human TK10 cells
UO-31 = assay: Growth inhibition of human UO31 cells
PC-3 = assay: Growth inhibition of human PC3 cells
MCF7 = assay: Growth inhibition of human MCF7 cells
[1] = Growth inhibition of human MCF7/ADR resistant cells; settings: NCI/ADR-RES
MDA-MB-231 = assay: Growth inhibition of human MDA-MB-231 cells
MDA-MB-435 = assay: Growth inhibition of human MDA-MB-435 cells
MDA-N = assay: Growth inhibition of human MDA-N cells
BT-549 = assay: Growth inhibition of human BT549 cells
T47D = assay: Growth inhibition of human T47D cells
L1210 = assay: Growth inhibition of mouse L1210 cells assessed as zone units at 50 ug/disk by disk diffusion agar colony formation assay
P388 = assay: Growth inhibition of mouse P388 cells assessed as zone units at 50 ug/disk by disk diffusion agar colony formation assay
PO3 = assay: Growth inhibition of mouse PO3 cells assessed as zone units at 50 ug/disk by disk diffusion agar colony formation assay
MC-38 = assay: Growth inhibition of mouse C38 cells assessed as zone units at 50 ug/disk by disk diffusion agar colony formation assay
[2] = Growth inhibition of mouse M17/ADR cells assessed as zone units at 50 ug/disk by disk diffusion agar colony formation assay
CX-1 = assay: Growth inhibition of human CX-1 cells assessed as zone units at 50 ug/disk by disk diffusion agar colony formation assay
[3] = Growth inhibition of human H116 cells assessed as zone units at 50 ug/disk by disk diffusion agar colony formation assay

CC1=C(CC/C(C)=C/CC[C@@]2(C)CC[C@H]([C@H](C)C(=O)O)OO2)C(C)(C)CCC1
GI50 (HL-60(TB)): 1.77 µM
GI50 (MOLT-4): > 5 µM
GI50 (A549): > 5 µM
GI50 (EKVX): > 5 µM
GI50 (HOP-62): > 5 µM
GI50 (HOP-92): > 5 µM
GI50 (NCI-H226): > 5 µM
GI50 (NCI-H23): > 5 µM
GI50 (NCI-H322M): > 5 µM
GI50 (NCI-H460): > 5 µM
GI50 (COLO 205): > 5 µM
GI50 (HCC 2998): > 5 µM
GI50 (HCT-116): > 5 µM
GI50 (HCT-15): > 5 µM
GI50 (HT-29): > 5 µM
GI50 (KM12): > 5 µM
GI50 (SW-620): > 5 µM
GI50 (SF-268): > 5 µM
GI50 (SF-295): > 5 µM
GI50 (SF-539): > 5 µM
GI50 (SNB-19): > 5 µM
GI50 (SNB-75): > 5 µM
GI50 (U-251): > 5 µM
GI50 (LOX IMVI): 2.17 µM
GI50 (M14): > 5 µM
GI50 (SK-MEL-2): > 5 µM
GI50 (SK-MEL-28): 0.43 µM
GI50 (SK-MEL-5): > 5 µM
GI50 (UACC-257): > 5 µM
GI50 (IGROV-1): 1.11 µM
GI50 (OVCAR-3): > 5 µM
GI50 (OVCAR-4): > 5 µM
GI50 (OVCAR-5): > 5 µM
GI50 (OVCAR-8): > 5 µM
GI50 (SK-OV-3): > 5 µM
GI50 (786-0): > 5 µM
GI50 (A498): > 5 µM
GI50 (ACHN): > 5 µM
GI50 (CAKI-1): > 5 µM
GI50 (RXF 393): > 5 µM
GI50 (SN12C): > 5 µM
GI50 (TK-10): > 5 µM
GI50 (UO-31): > 5 µM
GI50 (PC-3): > 5 µM
GI50 (MCF7): > 5 µM
GI50 [1]: > 5 µM
GI50 (MDA-MB-231): > 5 µM
GI50 (MDA-MB-435): > 5 µM
GI50 (MDA-N): > 5 µM
GI50 (BT-549): > 5 µM
GI50 (T47D): > 5 µM
Activity (L1210): 110 Zone units
Activity (P388): 110 Zone units
Activity (PO3): 40 Zone units
Activity (MC-38): 60 Zone units
Activity [2]: 80 Zone units
Activity (CX-1): 100 Zone units
Activity [3]: 80 Zone units
